Results from publication PMC8199500, “Novel Bis- and Mono-Pyrrolo[2,3-d]pyrimidine and Purine Derivatives: Synthesis, Computational Analysis and Antiproliferative Evaluation” (Molecules, 2021).
Where two headings read alike, the source gives them in different places. Values belong to the compound of their own block, whether it stands above or below them.

Assays:
[1] = tested on: ductal pancreatic adenocarcinoma (CFPAC-1) cells; test: MTT proliferation assay, CFPAC-1 cells; type: cell-based, human
Procedure: (§1) Human carcinoma cell lines A549 (lung carcinoma), HeLa (cervical carcinoma), SW620 (colorectal adenocarcinoma, metastatic) and CFPAC-1 (pancreatic cancer, derived from metastatic: liver), and normal human foreskin (HFF-1) fibroblasts were obtained from the American Type Culture Collection (ATCC, Manassas, VA, USA). Cells were cultured in humidified atmosphere at 37 °C with 5% CO2. As growth medium, Dulbecco′s modified Eagle medium (DMEM) was used with the addition of fetal bovine serum (10%), L-glutamine (2 mM) and antibiotics: streptomycin ([…]) and penicillin (100 U/mL).
(§2) Cells were seeded onto 96-well microtiter plates at a seeding density of 3000 cells/well for carcinoma cell lines, and 5000 cells/well for normal human fibroblasts. The next day, cells were treated with test agents in five different concentrations (0.01–100 µM) and further incubated for 72 h. […] Following 72 h incubation, the MTT assay was performed and measured absorbances were transformed into percentage of cell growth as described previously. Results were obtained from three independent experiments. IC50 values were calculated using linear regression analysis and results were statistically analyzed by ANOVA, Tukey post-hoc test (p < 0.05).

[2] = tested on: metastatic colorectal adenocarcinoma (SW620) cells; test: MTT proliferation assay, SW620 cells; type: cell-based, human
Procedure: as §1, §2

[3] = tested on: normal human foreskin fibroblasts (HFF-1); test: MTT proliferation assay, normal fibroblasts HFF-1; type: cell-based; conditions: 72 h incubation
Procedure: as §1, §2

[4] = tested on: lung adenocarcinoma (A549) cells; test: MTT proliferation assay, A549 cells; type: cell-based, human
Procedure: as §1, §2

[5] = tested on: cervical carcinoma (HeLa) cells; test: MTT proliferation assay, HeLa cells; type: cell-based, human; conditions: 72 h incubation
Procedure: as §1, §2

[6] = tested on: human tumor cell lines (A549, HeLa, CFPAC-1, SW620); test: MTT proliferation assay, all evaluated tumor cell lines; type: cell-based; conditions: read-out: antiproliferative activity (IC50) over the evaluated tumor cell lines
Procedure: as §1, §2

CFPAC-1 cells = test: Annexin V assay for apoptosis detection; type: cell-based, human; conditions: for viability at 3.95 µM / viability at 1.58 µM: Homo sapiens, CFPAC-1, read-out: viable cells (Ann−/PI−)
Procedure: Cells were seeded into 8-well chambers (Lab-tek II Chamber Slides, Thermo Fisher Scientific, Waltham, MA, USA) in a concentration of 2 × 10^4 cells per well and treated with 2 × IC50 and 5 × IC50 concentrations of selected compounds for 48 and 72 h. Staining of the cells was performed by Annexin-V-FITC Staining kit (Santa Cruz Biotechnology, Dallas, TX, USA) according to the manufacturer′s instructions. Cells were visualised by fluorescent microscope (Olympus, Tokyo, Japan) at magnification of 40×.

[7] = Homo sapiens, CFPAC-1, 72 h incubation
[8] = Homo sapiens, SW-620, 72 h incubation
[9] = Homo sapiens, A549, 72 h incubation
[10] = 48 h treatment, 1.85 µM (2 × IC50)
[11] = 48 h treatment, 3.95 µM (5 × IC50)
[12] = 72 h treatment, 1.85 µM (2 × IC50)
[13] = 72 h treatment, 3.95 µM (5 × IC50)

Compound: c1nc(N2CCCC2)c2ccn(CCn3cc(COc4ccc(OCc5cn(CCn6ccc7c(N8CCCC8)ncnc76)nn5)cc4)nn3)c2n1 [7a, 1,4-Bis{[1-(2-(4-(pyrrolidin-1-yl)-7H-pyrrolo[2,3-d]pyrimidin-7-yl)ethyl)-1H-1,2,3-triazol-4-yl]methoxy}benzene]
- IC50 [1, 7]: 25.8 ± 0.98 µM
- IC50 [2, 8]: 78 ± 2.1 µM
- IC50 [3]: 0.81 µM
- IC50 [4, 9]: 49.3 ± 6.4 µM
- melting point: 193 to 195 °C
- IC50 ([5]; Homo sapiens, HeLa): 6.4 ± 0.35 µM

Compound: c1nc(N2CCCCC2)c2ncn(CCn3cc(COc4ccc(OCc5cn(CCn6cnc7c(N8CCCCC8)ncnc76)nn5)cc4)nn3)c2n1 [9a, 1,4-Bis{[1-(2-(6-(piperidin-1-yl)-9H-purin-9-yl)ethyl)-1H-1,2,3-triazol-4-yl]methoxy}benzene]
- IC50 [1, 7]: 9.1 ± 1.3 µM
- IC50 [2, 8]: 43.5 ± 4.4 µM
- IC50 [3]: 0.76 µM
- IC50 [4, 9]: 53.5 ± 8 µM
- IC50 ([5]; Homo sapiens, HeLa): 16.2 ± 0.05 µM

Compound: c1nc(N2CCCCC2)c2ccn(CCn3cc(CCCc4cn(CCn5ccc6c(N7CCCCC7)ncnc65)nn4)nn3)c2n1 [6c, 1,3-Bis{1-[2-(4-(piperidin-1-yl)-7H-pyrrolo[2,3-d]pyrimidin-7-yl)ethyl]-1H-1,2,3-triazol-4-yl}propane]
- IC50 [1, 7]: 48.7 ± 1.5 µM
- IC50 [2, 8]: 65.2 ± 4.8 µM
- IC50 [4, 9]: 59.3 ± 4.9 µM
- IC50 ([6]; Homo sapiens): 28.2 to 65.2 µM
- melting point: 145 to 147 °C
- IC50 ([5]; Homo sapiens, HeLa): 33.7 ± 8.9 µM

Compound: C#CCOc1ccc(-c2ccc(OCc3cn(CCn4ccc5c(Cl)ncnc54)nn3)cc2)cc1 [5f, 4-chloro-7-{2-[4-(((4′-(prop-2-yn-1-yloxy)-[1,1′-biphenyl]-4-yl)oxy)methyl)-1H-1,2,3-triazol-1-yl]ethyl}-7H-pyrrolo[2,3-d]pyrimidine]
- IC50 [1, 7]: 0.79 ± 0.03 µM
- IC50 [2, 8]: 8 ± 1.8 µM
- mode of cell death in CFPAC-1 cells (CFPAC-1 cells; 48 and 72 h, 2 × IC50 and 5 × IC50): induces apoptosis and primary necrosis in CFPAC-1 cells in a concentration- and time-dependent manner
- early apoptotic cells (Ann+) (CFPAC-1 cells; [10]): 11.76 ± 3.58%
- late apoptotic/primary necrotic cells (Ann+/PI+) (CFPAC-1 cells; [10]): 5.88 ± 1.44%
- secondary necrotic cells (PI+) (CFPAC-1 cells; [10]): 2.72 ± 0.56%
- early apoptotic cells (Ann+) (CFPAC-1 cells; [11]): 21.21 ± 1.35%
- late apoptotic/primary necrotic cells (Ann+/PI+) (CFPAC-1 cells; [11]): 6.56 ± 0.24%
- secondary necrotic cells (PI+) (CFPAC-1 cells; [11]): 4.05 ± 1.22%
- decrease in cell viability vs control (CFPAC-1 cells; 48 h treatment, 5 × IC50): 28.4%
- increase in the percentage of cells in early apoptosis vs control (CFPAC-1 cells; 48 h treatment, 5 × IC50): 21.21%
- early apoptotic cells (Ann+) (CFPAC-1 cells; [12]): 30.36 ± 1.49%
- late apoptotic/primary necrotic cells (Ann+/PI+) (CFPAC-1 cells; [12]): 10.71 ± 4.89%
- secondary necrotic cells (PI+) (CFPAC-1 cells; [12]): 2.68 ± 0.37%
- early apoptotic cells (Ann+) (CFPAC-1 cells; [13]): 39.63 ± 8.54%
- late apoptotic/primary necrotic cells (Ann+/PI+) (CFPAC-1 cells; [13]): 26.14 ± 2.57%
- secondary necrotic cells (PI+) (CFPAC-1 cells; [13]): 6.3 ± 2.45%
- increase in early apoptotic cells vs control (CFPAC-1 cells; 72 h treatment, 2 × IC50): 24.08%
- increase in early apoptotic cells vs control (CFPAC-1 cells; 72 h treatment, 5 × IC50): 33.35%
- rise in late apoptotic/primary necrotic cells vs control (CFPAC-1 cells; 72 h treatment, 5 × IC50): 26.14%
- viability at 3.95 µM (CFPAC-1 cells; [11]): 68.2 ± 0.94%
- viability at 1.58 µM (CFPAC-1 cells; 48 h treatment): 79.6 ± 2.57%
- viability at 3.95 µM (CFPAC-1 cells; [13]): 27.9 ± 3.23%
- viability at 1.58 µM (CFPAC-1 cells; 72 h treatment): 56.2 ± 6.56%
- IC50 [3]: 0.62 µM
- IC50 [4, 9]: 6.9 ± 1.1 µM
- IC50 ([5]; Homo sapiens, HeLa): 0.98 ± 0.44 µM

Compound: {1-[2-(4-(Piperidin-1-yl)-7H-pyrrolo[2,3-d]pyrimidin-7-yl)ethyl]-1H-1,2,3-triazol-4-yl}methyl ether [6d]
- IC50 ([1]; 72 h incubation): 37.9 ± 3.7 µM
- IC50 ([2]; 72 h incubation): 45.5 ± 3.3 µM
- IC50 ([4]; 72 h incubation): 51.9 ± 3 µM
- IC50 [6]: 28.2 to 65.2 µM
- IC50 [5]: 28.2 ± 9 µM

More lines, main results first:

- IC50 [1, 7]: 2.9 ± 1 µM
- IC50 [2, 8]: 23.2 ± 3.2 µM
- IC50 [4, 9]: 9.3 ± 0.1 µM
- melting point: 221 to 225 °C
- IC50 ([5]; Homo sapiens, HeLa): 3.9 ± 0.69 µM
Compound: C#CCOc1ccc(-c2ccc(OCc3cn(CCn4cnc5c(N6CCCCC6)ncnc54)nn3)cc2)cc1 [9f, 6-(piperidin-1-yl)-9-{2-[4-(((4′-(prop-2-yn-1-yloxy)-[1,1′-biphenyl]-4-yl)oxy)methyl)-1H-1,2,3-triazol-1-yl]ethyl}-9H-purine]
- IC50 [3]: 4.3 µM

- IC50 [1, 7]: 8.1 ± 1.3 µM
- IC50 [2, 8]: 5.2 ± 2.2 µM
- IC50 [4, 9]: 12.3 ± 3.4 µM
- IC50 ([5]; Homo sapiens, HeLa): 3.8 ± 0.81 µM
Compound: c1nc(N2CCCCC2)c2ncn(CCn3cc(COc4ccc(-c5ccc(OCc6cn(CCn7cnc8c(N9CCCCC9)ncnc87)nn6)cc5)cc4)nn3)c2n1 [9b, 4,4′-Bis((1-(2-(6-(piperidin-1-yl)-9H-purin-9-yl)ethyl)-1H-1,2,3-triazol-4-yl)methoxy)-1,1′-biphenyl]
- IC50 [3]: 0.79 µM
